In one assay the test system is Human lymphocytes. The assay can be described thus: Immunosuppressive activity, 3H-thymidine incorporation in concanavalin A activated lymphocytes. To be noted: 72 hours, [3H]-TdR incorporation, read-out: Human lymphocytes ED50. Format: cell-based. The text has this:
One of the most important parameters of specific cellular immunity is the proliferative response of lymphocytes to antigens or polyclonal mitogens. The majority of normal mammalian peripheral lymphocytes comprise resting cells. Antigens or nonspecific polyclonal mitogens have the capacity to activate lymphoid cells and this is accompanied by dramatic changes of intracellular metabolism (mitochondrial activity, protein synthesis, nucleic acids synthesis, formation of blastic cells and cellular proliferation). […] Variety of in vitro assays was developed to measure proliferative response of lymphocytes. The most commonly used is ^3H-thymidine incorporation method.
During cell proliferation, DNA has to be replicated before the cell is divided into two daughter cells. This close association between cell doublings and DNA synthesis is very attractive for assessing cell proliferation. If labelled DNA precursors are added to the cell culture, cells that are about to divide incorporate the labelled nucleotide into their DNA. Traditionally, those assays usually involve the use of radiolabelled nucleosides, particularly tritiated thymidine ([^3H]-TdR). The amount of [^3H]-TdR incorporated into the cellular DNA is quantified by liquid scintillation counting.
Human heparinized peripheral blood was obtained from healthy volunteers by cubital vein punction. The blood was diluted in PBS (1:3) and mononuclear cells were separated by centrifugation in Ficoll-Hypaque density gradient (Pharmacia, 1.077 g/ml) at 2200 rpm for 30 minutes. Following centrifugation, lymphocytes were washed in PBS and resuspended in cell culture medium (RMPI 1640, 2 mM glutamine, 100 U/ml penicillin, 100 μg/ml streptomycin, 10% fetal calf serum and sodium bicarbonate).
The cells were diluted at target density of 1.100.000 cells/ml and were added by pipette (180 μl) into 96-well microtiter plates. Four-fold dilutions of the intended test concentration were added at time zero in 20 μl aliquots to the microtiter plate wells. Usually, test compound was evaluated at six 4-fold dilutions. In routine testing, the highest well concentration was 266.7 μM. All drug concentrations were examined in duplicates. All wells with exception of unstimulated controls were activated with 50 μl of concanavalin A (25 μg/ml). Incubations of cells with test compounds lasted for 72 hours at 37° C., in 5% CO2 atmosphere and 100% humidity. At the end of incubation period, the cells were assayed by using the [^3H]-TdR:
Cell cultures were incubated with 0.5 μCi (20 μl of stock solution 500 μCi/ml) per well for 6 hours at 37° C. and 5% CO2. The automated cell harvester was used to lyse cells in water and adsorb the DNA onto glass-fiber filters in the format of microtiter plate. The DNA incorporated [^3H]-TdR was retained on the filter while unincorporated material passes through. The filters were dried at room temperature overnight, sealed into a sample bag with 10-12 ml of scintillant. The amount of [^3H]-TdR present in each filter (in cpm) was determined by scintillation counting in a Betaplate liquid scintillation counter. The effective dose of immunosuppressant (ED) was calculated using the following equation: ED=(CCPMdrug exposed well/mean CCPMcontrol wells)×100%. The ED50 value, the drug concentration inhibiting proliferation of 50% of lymphocytes, was calculated from the obtained dose response curves.
To evaluate immunosuppressive activity of substituted adenines, their ability to inhibit polyclonal mitogen induced proliferation of normal human lymphocytes was analyzed (Table 4). […] Effective immunosuppressive dose of new derivatives under in vitro conditions was close to 10-40 μM.
For orientation: Incorporation of labelled thymidine or its analogues reports DNA synthesis.

Assay [1] concerns HOS (human osteogenic sarcoma). The assay can be described thus: Calcein AM cytotoxicity assay, HOS. Format: cell-based. To be noted: 72 hours incubation. From the text: (§1) Because toxic compounds negatively influence metabolic processes in cells, many standard cytotoxicity assays are based on measurement of metabolisation rate of various artificial substrates. Resulting product is then quantified e.g. by means of spectrometry. The assays can be easily modified for use in 96-well plates. For evaluation of cytotoxic effect of the novel substituted 9-substituted cytokinin derivatives of this invention, a microtiter assay based on quantification of metabolisation of Calcein AM was used. The assay is widely used in drug screening programs and in chemosensitivity testing. In the living cells, Calcein AM is enzymatically hydrolysed and accumulation of resulting calcein is manifested by green fluorescence.
(§2) In the routine screening the following cell lines have been used: CEM (T-lymphoblastoid leukemia), HL-60 (promyelocytic leukemia), K-562 (human erythroleukemia), MCF-7 (breast carcinoma), HOS (human osteogenic sarcoma), and G-361 (human malignant melanoma). Normal human fibroblasts BJ were used as a control for routine screening of the compounds. The cells were kept in Nunc/Corning 80 cm^2 plastic bottles and grown in cell culture medium (DMEM containing 5 g/l glucose, 2 mM glutamine, 100 U/ml penicilline, 100 μg/ml streptomycine, 10% fetal bovine serum and sodium hydrogencarbonate), the compounds were prepared according to the procedure of the present invention.
(§3) The cell suspensions were prepared and diluted according to the particular cell type and the expected target cell density (2.500-30.000 cells per well based on cell growth characteristics) and pippetted (80 μl) into 96-well plates. Inoculates were allowed a pre-incubation period of 24 hours at 37° C. and 5% CO2 for stabilisation. Tested compound was added in total volume of 20 μl of water at time zero. Usually, test compound was evaluated at six 3-fold dilutions. In routine testing, the highest concentration tested was 166.7 μM. All drug concentrations were tested in triplicates. Incubations of cells with the test compounds lasted for 72 hours at 37° C., in 5% CO2 atmosphere and 100% humidity. At the end of incubation period Calcein AM in PBS was added into final concentration of 1 μg/ml. After another 1 hour of incubation fluorescence (FD) was measured with the Labsystem FIA Reader Fluoroscan Ascent (Microsystems). Tumor cell survival (TCS) was estimated using the following equation: […]=(FDdrug exposed well/FDcontrol well)×100%. The GI50 value, the drug concentration causing 50% reduction of esterase activity, was calculated from the obtained dose response curves (FIG. 1).
(§4) Cytoxicity of novel compounds was tested on panel of cell lines of different histogenetic and species origin (Table 3). […] The effective novel derivatives killed tumour cells in concentrations close to 0.1-50 μM.

The subject of assay [2] is K-562 (human erythroleukemia). The experiment in a line: Calcein AM cytotoxicity assay, K-562. Format: cell-based. The note with it: 72 hours incubation.
Source text: as §1, §2, §3, §4

The next assay deals with MCF-7 (breast carcinoma). The experiment in a line: Calcein AM cytotoxicity assay, MCF7. To be noted: 72 hours incubation. Type of assay: cell-based.
Source text: as §1, §2, §3, §4

In assay [3] the test system is Normal human fibroblasts BJ. The experiment in a line: Calcein AM cytotoxicity assay, BJ. Type of assay: cell-based. The note with it: 72 hours incubation.
Source text: as §1, §2, §3, §4

For assay [4], the system named is CEM (T-lymphoblastoid leukemia). The experiment in a line: Calcein AM cytotoxicity assay, CEM. Format: cell-based. The note with it: 72 hours incubation, Calcein AM.
Source text: as §1, §2, §3, §4

Assay [5] deals with HL-60 (promyelocytic leukemia). The assay can be described thus: Calcein AM cytotoxicity assay, HL60. Type of assay: cell-based, human. To be noted: 72 hours incubation.
Source text: as §1, §2, §3, §4

For assay [6], the system named is cytokinin-dependent tobacco callus Nicotiana tabacum L. cv. Wisconsin 38. The assay can be described thus: Growth of cytokinin-dependent tobacco callus. The note with it: for Activity (%) [10^−5 mol · l^−1 KR = 100%]: at concentration with highest activity, relative to control cytokinin; for Concentration with highest activity: tobacco callus fresh weight after four weeks. Format: cell-based. The method, then: Cytokinin effect of newly prepared derivatives was tested using cytokinin-dependent tobacco callus. The cytokinin-dependent tobacco callus Nicotiana tabacum L. cv. Wisconsin 38 was maintained at 25° C. in darkness on modified MS medium, containing per 1 liter: 4 μmol of nicotinic acid, 2.4 μmol of pyridoxine hydrochloride, 1.2 μmol of thiamine, 26.6 μmol of glycine, 1.37 μmol of glutamine, 1.8 μmol of myo-inositol, 30 g of sucrose, 8 g of agar, 5.37 μmol of NAA and 0.5 μmol of the compound tested. Subcultivation was carried out every three weeks. Fourteen days before the bioassay, the callus tissue was transferred to the media without 6-benzylaminopurine. The biological activity was determined from the increase of the fresh callus weight after four weeks of cultivation. Five replicates were prepared for each concentration of the compound tested and the entire test was repeated twice. […] The compounds to be tested were dissolved in dimethylsulfoxide (DMSO) and the solution brought up to 10^−3 M with distilled water. […] The stimulatory activity was calculated from the dose-dependent fresh weight callus growth curves.
From the obtained data, the concentration with the highest activity was selected for each compound tested. Relative activity of the compound at this concentration was calculated (Table 5). […]

This is an account of results in patent US9073961B2, “Substitution derivatives of N6 -benzyladenosine-5′-monophosphate, methods of preparation thereof, use thereof as medicaments, and therapeutic preparations containing these compounds” (UNIVERZITA PALACKEHO V OLOMOUCI, priority 2010, dated 2015).

One may read the GI50 as the concentration at which growth is held to half of that of the control.

`O=P(O)(O)OC[C@H]1O[C@@H](n2cnc3c(NCc4ccc(O)c(O)c4)ncnc32)[C@H](O)[C@@H]1O` [3,4-dihydroxybenzylamino, 6-(3,4-dihydroxybenzylamino)purine riboside-5′-monophosphate]: the EC50 with Human lymphocytes amounted to 9.4 µM.
For the compound `COc1ccc(CNc2ncnc3c2ncn3[C@@H]2O[C@H](COP(=O)(O)O)[C@@H](O)[C@H]2O)c(O)c1` [2-hydroxy-4-methoxybenzylamino, 6-(2-hydroxy-4-methoxybenzylamino)purine riboside-5′-monophosphate], in the assay with Human lymphocytes, the EC50 amounted to 2.1 µM.
Take `O=P(O)(O)OC[C@H]1O[C@@H](n2cnc3c(NCc4ccc(F)cc4)ncnc32)[C@H](O)[C@@H]1O` [Compound 3, 6-(4-fluorobenzylamino)purine riboside-5′-monophosphate]: the GI50 in assay [1] was 20 µM; in assay [2], 6.4 µM; with MCF-7 (breast carcinoma), 14 µM; in assay [3], > 167 µM; in assay [4] it was 1.5 µM; in assay [5], 0.86 µM. The EC50 in the assay with Human lymphocytes was determined as 13.4 µM.
Turning to `Cc1ccccc1CNc1ncnc2c1ncn2[C@@H]1O[C@H](COP(=O)(O)O)[C@@H](O)[C@H]1O` [Compound 12, 6-(2-methylbenzylamino)purine riboside-5′-monophosphate], the GI50 in assay [1] was > 167 µM; in assay [2], > 167 µM; in the assay with MCF-7 (breast carcinoma), > 167 µM; in assay [3], > 167 µM; in assay [4], 14 µM; in assay [5], 3.3 µM. In addition, the EC50 in the assay with Human lymphocytes was 7.3 µM. Moreover, the “Activity (%) [10^−5 mol · l^−1 KR = 100%]” value (from here on “Activity (%)”) in assay [6] amounted to 108 ± 4%. Besides, the “Concentration with highest activity” value in assay [6] is given as 10^−6 mol · l^−1.
As to `O=P(O)(O)OC[C@H]1O[C@@H](n2cnc3c(NCc4cccc(Cl)c4)ncnc32)[C@H](O)[C@@H]1O` [Compound 5, 6-(3-chlorobenzylamino)purine riboside-5′-monophosphate], the GI50 in assay [1] was > 167 µM; in assay [2] it was 30.4 µM; with MCF-7 (breast carcinoma), > 167 µM; in assay [3] it was > 167 µM; in assay [4], 1.6 µM; in assay [5], 0.75 µM. Moreover, the EC50 in the assay on Human lymphocytes was 3.2 µM. The “Activity (%)” value in assay [6] amounted to 109 ± 5%. The “Concentration with highest activity” value in assay [6] is recorded as 10^−5 mol · l^−1.
On to `O=P(O)(O)OC[C@H]1O[C@@H](n2cnc3c(NCc4cccc(Cl)c4O)ncnc32)[C@H](O)[C@@H]1O` [2-hydroxy-3-chlorobenzylamino, 6-(2-hydroxy-3-chlorobenzylamino)purine ribo side-5′-monophosphate], for which the EC50 in the assay with Human lymphocytes stood at 3.2 µM.
Turning to `O=P(O)(O)OC[C@H]1O[C@@H](n2cnc3c(NCc4ccccc4F)ncnc32)[C@H](O)[C@@H]1O` [Compound 1, 6-(2-fluorobenzylamino)purine riboside-5′-monophosphate], the GI50 is > 167 µM in assay [1]; 33.2 µM in assay [2]; > 167 µM with MCF-7 (breast carcinoma); 4.6 µM in assay [4]; 3.2 µM in assay [5]. The EC50 in the assay with Human lymphocytes amounted to 6.3 µM. Also, in assay [6], the “Activity (%)” value was determined as 100 ± 9%. Besides, the “Concentration with highest activity” value in assay [6] is 10^−6 mol · l^−1.
With `Cc1cccc(CNc2ncnc3c2ncn3[C@@H]2O[C@H](COP(=O)(O)O)[C@@H](O)[C@H]2O)c1` [Compound 13, 6-(3-methylbenzylamino)purine riboside-5′-monophosphate], the GI50 in assay [1] was > 167 µM; in assay [2], > 167 µM; with MCF-7 (breast carcinoma), > 167 µM; in assay [3], > 167 µM; in assay [4], 19.1 µM; in assay [5], 6.4 µM. Besides, the EC50 with Human lymphocytes amounted to 7.5 µM.
Take `O=P(O)(O)OC[C@H]1O[C@@H](n2cnc3c(NCc4ccc(Cl)cc4)ncnc32)[C@H](O)[C@@H]1O` [Compound 6, 6-(4-chlorobenzylamino)purine riboside-5′-monophosphate]: the GI50 is > 167 µM in assay [1]; 16.1 µM in assay [2]; > 167 µM in the assay with MCF-7 (breast carcinoma); > 167 µM in assay [3]; 6.5 µM in assay [4]; 5.3 µM in assay [5]. The EC50 in the assay with Human lymphocytes worked out at 3.3 µM.
Regarding `O=P(O)(O)OC[C@H]1O[C@@H](n2cnc3c(NCc4ccccc4Br)ncnc32)[C@H](O)[C@@H]1O` [Compound 7, 6-(2-bromobenzylamino)purine riboside-5′-monophosphate], the GI50 is > 167 µM in assay [1]; 10 µM in assay [2]; > 167 µM with MCF-7 (breast carcinoma); > 167 µM in assay [3]; 12.3 µM in assay [4]; 6.6 µM in assay [5]. Moreover, in assay [6], the “Activity (%)” value came to 100 ± 4%. The “Concentration with highest activity” value in assay [6] is listed as 10^−5 mol · l^−1.
